# Measured values published in US4638070A, “Heterocyclic amino-alcohol derivatives” (Continental Pharma, priority 1980, dated 1987).
# Legend:
# [1] = Acute toxicity, oral, LD50 (Litchfield and Wilcoxon); conditions: mouse, in vivo, fasted male mice, confidence limits p=95% in brackets
# Protocol: (1) The acute toxicity was determined on fasted male mice. The tested substances were orally administered and LD50 values (lethal dose for 50% of animals) were calculated according to the method of Litchfield and Wilcoxon (J. Pharmacol. exp. Ther. 96, 94-113, 1949). These LD50 values are given in mg/kg and also, when possible, with their confidence limits for p=95%.
# [2] = tested on: unanaesthetized, hypertension-suffering rat; assay: Antihypertensive activity (systolic arterial pressure), oral; format: in vivo; conditions: 60 mg/kg, hypertensive rat, 3 hours
# Protocol: (2) The antihypertensive activity was measured on unanaesthetized, hypertension-suffering rat. The tested substances were orally given at a rate of 60 mg/kg. The systolic arterial pressure was measured every 30 minutes for 2 hours before and for 3 hours after the tested product was given. Results are expressed as follows: […]
# O: no reduction of arterial pressure.
# +: reduction lower than 10 mm Hg.
# ++: reduction of 10 to 20 mm Hg.
# +++: reduction higher than 20 mm Hg.
# [3] = tested on: guinea-pig ileum (histamine contractions); assay: Antispasmodic activity in vitro, contractions caused by histamine; conditions: added 15 minutes before spasm-producing agent
# Protocol: (§1) (4) The antispasmodic activity was measured in vitro, on guinea-pig ileum, the contractions of which were caused by histammne (Hist.), acetylcholine (Achol) or barium chloride (BaCl2). The tested products were added to perfusion bath 15 minutes before the spasm-producing agents.
# (§2) The dose is given in micograms (μg) per ml of bath causing complete spasm inhibition.
# [4] = tested on: guinea-pig ileum (acetylcholine contractions); assay: Antispasmodic activity in vitro, contractions caused by acetylcholine; conditions: added 15 minutes before spasm-producing agent
# Protocol: as §1, §2
# [5] = tested on: femoral artery; assay: Vasodilator activity, femoral artery (technique of perfused paw); format: in vivo; design: key: O: no action; +: slight activity; ++: effect equal to half the effect of papaverine; +++: effect equal to that of papaverine; ++++: effect higher than that of papaverine; conditions: intra-arterial, 30 mg/kg, anaesthetized dog, vs papaverine at same dose
# Protocol: (3) The vasodilator activity was measured at the level of femoral artery on anaesthetized dog (technique of perfused paw). The tested substances were given intra-arterially at the rate of 30 mg/kg. Results are expressed with respect to papaverine tested at the same dose.
# ++: effect equal to half the effect of papaverine.
# +++: effect equal to that of papaverine.
# ++++: effect higher than that of papaverine.
Molecule,LD50 [1],ANTIHYPERTENSIVE ACTIVITY [2],ANTISPASMODIC ACTIVITY HIST. (dose causing complete spasm inhibition) [3],ANTISPASMODIC ACTIVITY ACHOL (dose causing complete spasm inhibition) [4],VASODILATOR ACTIVITY [5]
CCCCCCCC(=O)OC(c1ccc2c(c1)CCS2)C(C)NCCCCc1ccccc1 (stereo not shown) [No 133],2600 mg/kg,+++ (reduction higher than 20 mm Hg),–,–,–
CCCCOCCCNC(C)C(O)c1ccc2c(c1)CC(C)O2 (stereo not shown) [No 74],–,+ (reduction lower than 10 mm Hg),8.3 μg per ml,8.3 μg per ml,++
CC(NCCCCc1ccccc1)C(OC(=O)C1CCCCC1)c1ccc2c(c1)CCS2 (stereo not shown) [No 138],> 4000 mg/kg,+++ (reduction higher than 20 mm Hg),–,–,–
CC1Cc2cc(C(O)C(C)NCCCOc3ccccc3)ccc2S1 (stereo not shown) [No 64],–,+++ (reduction higher than 20 mm Hg),1.7 μg per ml,1.7 μg per ml,+++
"1-(2-methyl-2,3-dihydro-5-benzo[b]furanyl-2-[4-(p-chlorophenyl)butylamino]- 1-propanol [No 65]",–,+++ (reduction higher than 20 mm Hg),1.7 μg per ml,1.7 μg per ml,++++
CCCC(=O)OC(c1ccc2c(c1)CCS2)C(C)NCCCCc1ccccc1 (stereo not shown) [No 130],3700 mg/kg,+++ (reduction higher than 20 mm Hg),–,–,–
CC(C(O)c1ccc2c(c1)CCCS2)N1CCOC(c2ccccc2)C1C (stereo not shown) [No 110],–,+ (reduction lower than 10 mm Hg),0.8 μg per ml,3.3 μg per ml,0
CCCCCCCCNC(C)C(OC(=O)C(C)C)c1ccc2c(c1)CCCS2 (stereo not shown) [No 139],–,+++ (reduction higher than 20 mm Hg),–,–,–
Cc1ccc(CCCCNC(C)C(O)c2ccc3c(c2)CC(C)O3)cc1 (stereo not shown) [No 90],–,+++ (reduction higher than 20 mm Hg),0.8 μg per ml,1.7 μg per ml,++++
CC(NCCCCc1ccccc1)C(OC(=O)C1CCCC1)c1ccc2c(c1)CCS2 (stereo not shown) [No 137],~1750 mg/kg,+++ (reduction higher than 20 mm Hg),–,–,–
CC(NCCCCc1ccccc1)C(OC(=O)C1CCC1)c1ccc2c(c1)CCS2 (stereo not shown) [No 132],1900 mg/kg,+++ (reduction higher than 20 mm Hg),–,–,–
CC(=O)O[C@@H](c1ccc2c(c1)CCS2)[C@H](C)NCCCCc1ccccc1 (relative stereo) [No 113],–,+ (reduction lower than 10 mm Hg),–,–,–
C#CC(C)(C)NC(C)C(O)c1ccc2c(c1)CCCS2 (stereo not shown) [No 44],–,+++ (reduction higher than 20 mm Hg),16.7 μg per ml,8.3 μg per ml,++
CCCCCCCCNC(C)C(OC(=O)CC)c1ccc2c(c1)CCCS2 (stereo not shown) [No 131],> 4000 mg/kg,+ (reduction lower than 10 mm Hg),–,–,–
COCCOCCCNC(C)C(O)c1ccc2c(c1)CCS2 (stereo not shown) [No 129],250 mg/kg,+++ (reduction higher than 20 mm Hg),–,–,–
Cc1ccc(CCCCNC(C)C(O)c2ccc3c(c2)CCCCS3)cc1 (stereo not shown) [No 30],–,+++ (reduction higher than 20 mm Hg),1.7 μg per ml,0.8 μg per ml,+++
CC(NCCCC(=O)c1ccc(F)cc1)C(O)c1ccc2c(c1)CCC2 (stereo not shown) [No 175],–,+++ (reduction higher than 20 mm Hg),0.8 μg per ml,0.8 μg per ml,++
CCCCCCCCNC(C)C(OC(=O)CCC)c1ccc2c(c1)CCCS2 (stereo not shown) [No 134],> 4000 mg/kg,+++ (reduction higher than 20 mm Hg),–,–,–

Molecule,LD50 [1],ANTIHYPERTENSIVE ACTIVITY [2],ANTISPASMODIC ACTIVITY HIST. (dose causing complete spasm inhibition) [3],ANTISPASMODIC ACTIVITY ACHOL (dose causing complete spasm inhibition) [4],VASODILATOR ACTIVITY [5]
CC1Cc2cc(C(O)C(C)NCCCc3ccccc3)ccc2O1 (stereo not shown) [No 69],–,+++ (reduction higher than 20 mm Hg),8.3 μg per ml,16.7 μg per ml,++
CC(CCCc1ccccc1)NC(C)C(O)c1ccc2c(c1)CCCS2 (stereo not shown) [No 42],–,+++ (reduction higher than 20 mm Hg),1.7 μg per ml,1.7 μg per ml,+++
CCC(NCCCCc1ccccc1)C(O)c1ccc2c(c1)CCCS2 (stereo not shown) [No 135],> 4000 mg/kg,+++ (reduction higher than 20 mm Hg),–,–,–
COCCOCCCNC(C)C(O)c1ccc2c(c1)CCC2 (stereo not shown) [No 179],250 mg/kg,+++ (reduction higher than 20 mm Hg),–,–,–
CC1Cc2cc(C(O)C(C)NCCCc3ccccc3)ccc2S1 (stereo not shown) [No 67],–,+++ (reduction higher than 20 mm Hg),1.7 μg per ml,1.7 μg per ml,+++
CCCCCCCCCCCCCCNC(C)C(O)c1ccc2c(c1)CCCS2 (stereo not shown) [No 76],> 4000 mg/kg,+ (reduction lower than 10 mm Hg),–,–,–
CC(NCCOc1ccc(C#N)cc1)C(O)c1ccc2c(c1)CCS2 (stereo not shown) [No 85],–,+++ (reduction higher than 20 mm Hg),8.3 μg per ml,16.7 μg per ml,+++
CC(=O)OC(c1ccc2c(c1)CCS2)C(C)NCCCCc1ccccc1 (stereo not shown) [No 112],–,+++ (reduction higher than 20 mm Hg),0.3 μg per ml,3.3 μg per ml,+++
Cc1ccc(CCNC(C)C(O)c2ccc3c(c2)CC(C)S3)cc1 (stereo not shown) [No 71],–,+++ (reduction higher than 20 mm Hg),0.8 μg per ml,0.8 μg per ml,+++
CCCCCCCCNC(C)C(O)c1ccc2c(c1)SCCS2 (stereo not shown) [No 101],–,++ (reduction of 10 to 20 mm Hg),0.8 μg per ml,0.8 μg per ml,+++
Cc1ccc(CCCCNC(C)C(O)c2ccc3c(c2)CCC3)cc1 (stereo not shown) [No 166],–,++ (reduction of 10 to 20 mm Hg),0.8 μg per ml,0.8 μg per ml,+++
"1-(2,3-dihydro-5-benzo[b]thienyl)-2-(4-phenylbutylamino)-1-propanol [Example 18]",–,+++ (reduction higher than 20 mm Hg),0.8 μg per ml,0.33 μg per ml,++++
CC(NCCCCc1ccccc1)C(O)c1ccc2c(c1)CCCC2 (stereo not shown) [No 171],–,+ (reduction lower than 10 mm Hg),0.8 μg per ml,0.8 μg per ml,+++
CC(C(O)c1ccc2c(c1)CCC2)N1CCOC(c2ccccc2)C1C (stereo not shown) [No 177],–,++ (reduction of 10 to 20 mm Hg),1.7 μg per ml,1.7 μg per ml,–
COCCOCCCNC(C)C(O)c1ccc2c(c1)CCCS2 (stereo not shown) [No 81],–,+++ (reduction higher than 20 mm Hg),16.7 μg per ml,16.7 μg per ml,++
CC(NCCOCc1ccccc1)C(O)c1ccc2c(c1)CCCS2 (stereo not shown) [No 46],4000 mg/kg,–,8.3 μg per ml,3.3 μg per ml,+++
C[C@H](NCCCCc1ccccc1)[C@@H](O)c1ccc2c(c1)CCS2 (relative stereo) [No 98],–,+ (reduction lower than 10 mm Hg),–,–,–
CC(C)NC(C)C(O)c1ccc2c(c1)CCCCS2 (stereo not shown) [No 38],240 mg/kg,–,3.3 μg per ml,8.3 μg per ml,++
